Converted amounts (≈) assume the structure as drawn.
Experiments:
[1] = Cytotoxicity against human LNCAP cells after 3 days by sulforhodamine B assay; type: cell-based; details: read-out: ED50
Plasmodium falciparum [2] = experiment: Antimalarial activity after 24 hrs against chloroquine-resistant Plasmodium falciparum W2 infected type A+ human erythrocytes by [3H]hypoxanthine uptake; type: functional; details: read-out: ED50 (the source's name)
[3] = Selectivity index, ratio of ED50 for human LNCaP cells to ED50 for chloroquine-resistant Plasmodium falciparum W2; type: toxicity, cell-based; details: read-out: Ratio ED50
[4] = Selectivity index, ratio of ED50 for human LUC1 cells to ED50 for chloroquine-sensitive Plasmodium falciparum D6; type: toxicity, cell-based; details: read-out: Ratio ED50
[5] = Selectivity index, ratio of ED50 for human LUC1 cells to ED50 for chloroquine-resistant Plasmodium falciparum W2; type: toxicity, cell-based; details: read-out: Ratio ED50
[6] = Cytotoxicity against mouse P388 cells after 2 days by sulforhodamine B assay; type: cell-based; details: read-out: ED50
[7] = Selectivity index, ratio of ED50 for human ZR-75-1 cells to ED50 for chloroquine-sensitive Plasmodium falciparum D6; type: toxicity, cell-based; details: read-out: Ratio ED50
in vitro [8] = details: mouse, P388 cells
Description: Selectivity index, ratio of ED50 for mice (Mus musculus) P388 cells to ED50 for chloroquine-resistant Plasmodium falciparum W2

in vitro [9] = details: human, A431 cells
Description: Selectivity index, ratio of ED50 for human A431 cells to ED50 for chloroquine-resistant Plasmodium falciparum W2

[10] = Selectivity index, ratio of ED50 for human KB-V1 cells to ED50 for chloroquine-sensitive Plasmodium falciparum D6; type: toxicity, cell-based; details: read-out: Ratio ED50
[11] = Selectivity index, ratio of ED50 for human ZR-75-1 cells to ED50 for chloroquine-resistant Plasmodium falciparum W2; type: toxicity, cell-based; details: read-out: Ratio ED50
[12] = Selectivity index, ratio of ED50 for human MEL2 cells to ED50 for chloroquine-sensitive Plasmodium falciparum D6; type: toxicity, cell-based; details: read-out: Ratio ED50
[13] = Selectivity index, ratio of ED50 for human COL1 cells to ED50 for chloroquine-sensitive Plasmodium falciparum D6; type: toxicity, cell-based; details: read-out: Ratio ED50
[14] = Selectivity index, ratio of ED50 for human KB cells to ED50 for chloroquine-sensitive Plasmodium falciparum D6; type: toxicity, cell-based; details: read-out: Ratio ED50
[15] = Cytotoxicity against human KB cells after 3 days by sulforhodamine B assay; type: cell-based; details: read-out: ED50
Plasmodium falciparum [16] = experiment: Antimalarial activity after 24 hrs against chloroquine-sensitive Plasmodium falciparum D6 infected type A+ human erythrocytes by [3H]hypoxanthine uptake; type: functional; details: read-out: ED50 (the source's name)
[17] = Cytotoxicity against human LUC1 cells after 3 days by sulforhodamine B assay; type: cell-based; details: read-out: ED50
[18] = Selectivity index, ratio of ED50 for human HT1080 cells to ED50 for chloroquine-sensitive Plasmodium falciparum D6; type: toxicity, cell-based, HT-1080; details: read-out: Ratio ED50
[19] = Cytotoxicity against human Col1 cells after 3 days by sulforhodamine B assay; type: cell-based; details: read-out: ED50
[20] = Selectivity index, ratio of ED50 for human KB cells to ED50 for chloroquine-resistant Plasmodium falciparum W2; type: toxicity, cell-based; details: read-out: Ratio ED50
[21] = Selectivity index, ratio of ED50 for human LNCaP cells to ED50 for chloroquine-sensitive Plasmodium falciparum D6; type: toxicity, cell-based; details: read-out: Ratio ED50
[22] = Cytotoxicity against human BCA1 cells after 3 days by sulforhodamine B assay; type: cell-based; details: read-out: ED50
[23] = Cytotoxicity against human KBV1 cells after 3 days by sulforhodamine B assay; type: cell-based, KB-V1; details: read-out: ED50
[24] = Selectivity index, ratio of ED50 for human KB-V1 cells to ED50 for chloroquine-resistant Plasmodium falciparum W2; type: toxicity, cell-based; details: read-out: Ratio ED50
[25] = Cytotoxicity against human A431 cells after 3 days by sulforhodamine B assay; type: cell-based, A-431; details: read-out: ED50
[26] = Cytotoxicity against human HT1080 cells after 3 days by sulforhodamine B assay; type: cell-based, HT-1080; details: read-out: ED50
in vitro [27] = details: mouse, P388 cells; remark: listed apart in the source
Description: Selectivity index, ratio of ED50 for mice (Mus musculus) P388 cells to ED50 for chloroquine-sensitive Plasmodium falciparum D6

[28] = Cytotoxicity against human SK-MEL-2 cells after 3 days by sulforhodamine B assay; type: cell-based; details: read-out: ED50
[29] = Selectivity index, ratio of ED50 for human HT1080 cells to ED50 for chloroquine-resistant Plasmodium falciparum W2; type: toxicity, cell-based, HT-1080; details: read-out: Ratio ED50
[30] = Selectivity index, ratio of ED50 for human BCA1 cells to ED50 for chloroquine-sensitive Plasmodium falciparum D6; type: toxicity, cell-based; details: read-out: Ratio ED50
[31] = Selectivity index, ratio of ED50 for human COL1 cells to ED50 for chloroquine-resistant Plasmodium falciparum W2; type: toxicity, cell-based; details: read-out: Ratio ED50
in vitro [32] = details: human, A431 cells; remark: listed apart in the source
Description: Selectivity index, ratio of ED50 for human A431 cells to ED50 for chloroquine-sensitive Plasmodium falciparum D6

[33] = Cytotoxicity against human ZR-75-1 cells after 3 days by sulforhodamine B assay; type: cell-based; details: read-out: ED50
[34] = Selectivity index, ratio of ED50 for human BCA1 cells to ED50 for chloroquine-resistant Plasmodium falciparum W2; type: toxicity, cell-based; details: read-out: Ratio ED50
[35] = Selectivity index, ratio of ED50 for human MEL2 cells to ED50 for chloroquine-resistant Plasmodium falciparum W2; type: toxicity, cell-based; details: read-out: Ratio ED50

SMILES	CC50 at 72 h [1]	EC50 (Plasmodium falciparum [2])	selectivity ratio [3]	CC50 at 48 h [6]	selectivity ratio [7]	selectivity ratio (in vitro [8])	selectivity ratio (in vitro [9])	selectivity ratio [10]	selectivity ratio [11]	selectivity ratio [12]	CC50 at 72 h [15]	EC50 (Plasmodium falciparum [16])	CC50 at 72 h [17]	CC50 at 72 h [19]	CC50 at 72 h [22]	CC50 at 72 h [23]	CC50 at 72 h [25]	CC50 at 72 h [26]	CC50 at 72 h [28]	CC50 at 72 h [33]	other results
COc1ccc2cc1Oc1ccc(cc1)C[C@H]1c3cc(c(OC)cc3CCN1C)Oc1c(O)c(OC)cc3c1[C@@H](C2)NCC3	6.6 µg/mL (≈ 11.1 µM)	0.125 µg/mL (≈ 0.21 µM)	53	0.1 µg/mL (≈ 0.168 µM)	23	1	34	118	13	225	6.3 µg/mL (≈ 10.6 µM)	0.0686 µg/mL (≈ 0.115 µM)	8.4 µg/mL (≈ 14.1 µM)	4.7 µg/mL (≈ 7.9 µM)	4.1 µg/mL (≈ 6.89 µM)	8.1 µg/mL (≈ 13.6 µM)	4.2 µg/mL (≈ 7.06 µM)	2.2 µg/mL (≈ 3.7 µM)	15.4 µg/mL (≈ 25.9 µM)	1.2 µg/mL (≈ 2.02 µM)	selectivity ratio [4]: 123; selectivity ratio [5]: 67; selectivity ratio [13]: 69; selectivity ratio [14]: 92; selectivity ratio [18]: 32; selectivity ratio [20]: 50; selectivity ratio [21]: 97; selectivity ratio [24]: 65; selectivity ratio (in vitro [27]): 2; selectivity ratio [29]: 18; selectivity ratio [30]: 60; selectivity ratio [31]: 38; selectivity ratio (in vitro [32]): 61; selectivity ratio [34]: 33
CCN(CC)CCCC(C)Nc1ccnc2cc(Cl)ccc12 (stereo not given) [CHLOROQUINE]	14.3 µg/mL (≈ 44.7 µM)	0.0317 µg/mL (≈ 0.0991 µM)	–	> 5 µg/mL	–	–	–	–	–	–	17.4 µg/mL (≈ 54.4 µM)	0.0025 µg/mL (≈ 0.00782 µM)	> 20 µg/mL	10.1 µg/mL (≈ 31.6 µM)	> 20 µg/mL	7.8 µg/mL (≈ 24.4 µM)	> 20 µg/mL	6.5 µg/mL (≈ 20.3 µM)	> 20 µg/mL	15.8 µg/mL (≈ 49.4 µM)	–
OC(c1cc(C(F)(F)F)nc2c(C(F)(F)F)cccc12)C1CCCCN1 (stereo not given) [MEFLOQUINE]	2.3 µg/mL (≈ 6.08 µM)	0.0012 µg/mL (≈ 0.00317 µM)	1920	0.2 µg/mL (≈ 0.529 µM)	300	166	2500	122	2250	989	3.5 µg/mL (≈ 9.25 µM)	0.009 µg/mL (≈ 0.0238 µM)	7.7 µg/mL (≈ 20.4 µM)	1 µg/mL (≈ 2.64 µM)	5.3 µg/mL (≈ 14 µM)	1.1 µg/mL (≈ 2.91 µM)	3 µg/mL (≈ 7.93 µM)	2.3 µg/mL (≈ 6.08 µM)	8.9 µg/mL (≈ 23.5 µM)	1.2 µg/mL (≈ 3.17 µM)	selectivity ratio [13]: 111; selectivity ratio [14]: 389; selectivity ratio [18]: 256; selectivity ratio [21]: 256; selectivity ratio [24]: 917; selectivity ratio [35]: 7420; selectivity ratio (in vitro [27]): 22; selectivity ratio [29]: 1920; selectivity ratio [30]: 588; selectivity ratio [31]: 833; selectivity ratio (in vitro [32]): 333; selectivity ratio [34]: 4420
COc1ccc2cc1Oc1ccc(cc1)C[C@H]1c3c(cc(O)c(OC)c3Oc3cc4c(cc3OC)CCN(C)[C@@H]4C2)CCN1C	8.3 µg/mL (≈ 13.6 µM)	0.31 µg/mL (≈ 0.509 µM)	–	3.7 µg/mL (≈ 6.08 µM)	4	76	–	–	43	–	6.4 µg/mL (≈ 10.5 µM)	0.13 µg/mL (≈ 0.214 µM)	8.6 µg/mL (≈ 14.1 µM)	7.5 µg/mL (≈ 12.3 µM)	4.7 µg/mL (≈ 7.72 µM)	7.4 µg/mL (≈ 12.2 µM)	8.9 µg/mL (≈ 14.6 µM)	7.2 µg/mL (≈ 11.8 µM)	12.8 µg/mL (≈ 21 µM)	2.1 µg/mL (≈ 3.45 µM)	–
